This note sets out measurements from US12011475B2, “Polypeptide, polypeptide fragment, derivative thereof, and applications thereof” (CHENGDU HUITAI BIOMEDICINE CO., LTD., priority 2017, dated 2024).

Ends that are not written are not given here.

Common to all, as to assay type: in vivo
Assay [1] has as its system rat with pulmonary fibrosis induced by bleomycin. As to the kind of experiment: Rat weight, intratracheal instillation (Examples 15-16). The note with it: Day 14/Day 0, 8 mg/kg peptide + 4 mg/kg bleomycin simultaneously, Mean ± SEM. The procedure:
The rats were weighed before administration, intramuscular injection of Zoletil anesthetic solution, the dose was 65 mg/kg. After the rats entered the stage III anesthesia, the experimental rats were bond in the incline lateral decubitus. A size 12 gavage needle was inserted into rat trachea through oral cavity along the glottis to infuse the drug. The experimental animals were fed normally from the 1st day to the 14th day after intratracheal administration, and were weighed regularly every day without restriction of feed or drinking water.
(§1) The rats in model group were intratracheally instilled with bleomycin (4 mg/kg); after anesthesia, the rats in treatment groups were intratracheally instilled with bleomycin (4 mg/kg) and corresponding therapeutic drug (8 mg/kg) simultaneously. The remaining implementation steps were the same as the description of Example 9.
The model and the administration route were referred to Example 15. The experimental rats in the control group, the model group, and the treatment groups described in Example 15 were weighted every day from the 1st day until the 14th day. When weighing, the “unstable weighing” of the electronic balance was selected, and an appropriate number of weighing and a degree of tolerable instability during the reading phase were set according to the instructions to weigh and record the readings. […]

The subject of assay [2] is active TGF-β. Kind of assay: Active TGF-β content in rat lung tissue by ELISA (Example 27). The note with it: active TGF-β/total TGF-β; intravenous injection 10 mg/kg once a day, 4th to 13th day after bleomycin 4 mg/kg; Mean ± SEM. As to the method: The rat lung tissue in the model group, the control group and the N4 treatment group of Example 9 was taken, and homogenized using RIPA lysate (100 mg of lung tissue corresponding to 1 mL of lysate), centrifuged and the supernatant was taken, and then the protein concentration was determined by BCA method. Equal amounts of protein samples were taken and the active TGF-β content was measured by enzyme-linked immunosorbent assay ELISA (Promega, Cat. No. G7591) (the result is shown in FIG. 10), and one-way ANOVA was used for biostatistical analysis.
(§2) The rats were weighed before administration, intramuscularly injected with 65 mg/kg Zoletil anesthetic solution. After the rats entered the stage III anesthesia, the experimental rats were fixated in the lateral decubitus. Gavage needle size 12 was inserted into rat trachea through oral cavity along the glottis to instill sterile saline or bleomycin (4 mg/kg) (Day 0). After the anesthesia, the rats in control group were intratracheally instilled with an equal volume of sterile saline, and the rats in model group and treatment groups were intratracheally instilled with bleomycin (4 mg/kg). […]
The rat lung tissue in the model group, the control group and the treatment groups of Example 20 was taken, and the active TGF-β content was measured by ELISA. […]
On the technique in general: ELISA stands for enzyme-linked immunosorbent assay.

Assay [3] relates to rat with pulmonary fibrosis induced by bleomycin. Kind of assay: Masson staining score, intratracheal instillation (Example 19). The note with it: fibrosis pathology score, grade 0 to 8, 8 mg/kg peptide + 4 mg/kg bleomycin, Mean ± SEM.
Source text: The lung tissue of the rats of Example 9 was taken, fixed with 4% paraformaldehyde and embedded in paraffin. The wax block embedded the lung tissue was sectioned along the largest cross section. Pathological changes in lung tissue were observed using staining by Masson's trichrome stain (Masson). Pathological changes in lung tissue were observed under a light microscope (low magnification) at a magnification of 100 times (the result is shown in FIG. 15).
According to the Modified Ashcroft scale scoring method, the degree of pulmonary fibrosis was evaluated according to the range of lesions and could be divided into 0 to 8 grades.
as §1
The lung tissue of the control group, the model group and the treatment groups of Example 15 was taken and subjected to Masson staining and scoring. The specific implementation steps were the same as the description of Example 13.

The test system is the same in assay [4]. As to the kind of experiment: Rat body weight, intravenous injection (Examples 20-21). The note with it: Day 14/Day 0; intravenous injection 10 mg/kg once a day, 4th to 13th day after bleomycin 4 mg/kg; Mean ± SEM.
Source text: The model and the administration route were referred to Example 15. The experimental rats in the control group, the model group, and the treatment groups described in Example 15 were weighted every day from the 1st day until the 14th day. When weighing, the “unstable weighing” of the electronic balance was selected, and an appropriate number of weighing and a degree of tolerable instability during the reading phase were set according to the instructions to weigh and record the readings. The result is shown in the weight ratios in FIG. 2 (Day 14/Day 0).
as §2, with “mg/kg). On the 4th day, the sterile saline or peptide drug was injected through the tail vein once a day until the 13th day. The rats were sacrificed on the 14th day for subsequent experiments.” for “mg/kg).”

Assay [5] shares this test system. As to the kind of experiment: HE staining score, intratracheal instillation (Example 18). Particulars: inflammatory pathology score, grade 0 to 3, 8 mg/kg peptide + 4 mg/kg bleomycin, Mean ± SEM. The source says:
The lung tissue of the rats of Example 2 was taken, fixed with 4% paraformaldehyde and embedded in paraffin. The wax block embedded the lung tissue was sectioned along the largest cross section. Pathological changes in lung tissue were observed using hematoxylin-eosin (HE) staining. Pathological changes in lung tissue were observed under a light microscope (low magnification) at a magnification of 100 times (the result is shown in FIG. 2).
According to the method provided by Szapie, et al., the degree of alveolitis was graded according to the range of lesions and could be divided into 0 to 3 grades, corresponding to 0 to 3 points. The evaluation indexes for the degree of alveolitis are as follows: grade 0, no alveolitis; grade 1, mild alveolitis, manifested as a slight increase in alveolar septum, infiltration of monocytes, near the pleura or localized, with a lesion range of less than 20% without alveolar structural damage; grade 2, moderate alveolitis, the lesion ranges from 20% to 50%, relatively severe near the pleura; grade 3, severe alveolitis, diffusely distributed, the lesion range is more than 50%, with pulmonary parenchymal lesion occasionally. […]

Assay [6] has the same test system. As to the kind of experiment: Hydroxyproline content in rat lung tissue, acid hydrolysis, intravenous injection (Example 25). The note with it: intravenous injection 10 mg/kg once a day, 4th to 13th day after bleomycin 4 mg/kg; Mean ± SEM. The procedure: as §2, with “mg/kg). On the 4th day, the sterile saline or peptide drug was injected through the tail vein once a day until the 13th day. The rats were sacrificed on the 14th day for subsequent experiments. The rats in the control group were received no drug treatment; the rats in the model group were injected with sterile saline through the tail vein; the rats in the treatment groups were injected with corresponding peptide drug (10 mg/kg) through the tail vein.” for “mg/kg).”
The lung tissue in the model group, the control group and the treatment groups of Example 20 was taken, and the hydroxyproline content in lung tissue was detected using BioVision Hydroxyproline Acid Hydrolysis Assay Kit (Cat. No. K555-100), the result is shown in the HYP values in Table 4.

Take YRVRFLAKENVTQDAEDN [N1]: the “Weight Ratio” value in assay [1] and in assay [4] was 1.05 ± 0.02 in each case. Moreover, the “TGF-β (active TGF-β content in lung tissue)” value in assay [2] is recorded as 13.15 ± 0.48. Further, the “Masson Score” value in assay [3] is listed as 3.93 ± 0.09. The “HE Score” value in assay [5] came to 2.45 ± 0.09. Also, the “HYP (hydroxyproline content in lung tissue)” value in assay [6] was 34.09 ± 5.01.
